# Data taken from paper PMC11474028, “Lipopeptide antibiotics disrupt interactions of undecaprenyl phosphate with UptA” (Proceedings of the National Academy of Sciences of the …, 2024).
# Entries after “also recorded” stand apart in the source; their conditions may differ.
# Tests used:
# UptA R112E/R118E = experiment: Native MS of C55-P binding to UptA double mutant R112E/R118E; design: species or system Bacillus subtilis; conditions: 5 µM protein, 10 µM C55-P, pH 8.02, 0.05% LDAO, 200 mM ammonium acetate, 100 V; mean of three biological replicates
# Source text: (§1) Conserved arginine residues in the putative membrane reentrant loops of E. coli DedA proteins YqjA (R130) and YghB (R136) are important for the cellular role of these proteins ([36]). […] How these residues impact substrate interactions, however, is not known. Based on the model structure of UptA predicted by AlphaFold, the R112 residue should engage Q64 while R118 is able to form hydrogen bonds with E32, H119, and W146 to potentially stabilize the membrane reentrant loops (Fig. 3A). To test for the impact of these residues on C55-P binding, we generated the E32A, Q64A, R112A, R118A, H119A, and W146A UptA single mutants. After purification of the proteins, using the same protocol as the wild type (WT) (Materials and Methods and SI Appendix, Fig. S5), we equilibrated aliquots of each protein variant (5 µM) with C55-P (10 µM) and recorded spectra using the same instrument settings. […] We additionally generated a double mutant R112E/R118E in which the polarity of both native arginine residues in the wild type are reversed.
# (§2) Expression and purification of UptA
# (§3) Plasmids were used to transform chemically competent E. coli C43(DE3) cells (Lucigen) and selected on LB/Agar containing 100 μg/ml ampicillin at 37 °C. Single colonies were used to inoculate 60 mL LB containing 100 μg/ml ampicillin and were grown at 37 °C overnight for 16 h. […]
# UptA Q64A = experiment: Native MS of C55-P binding to UptA mutant Q64A; design: species or system Bacillus subtilis; conditions: 5 µM protein, 10 µM C55-P, pH 8.02, 0.05% LDAO, 200 mM ammonium acetate, collisional activation 100 V; three biological replicates
# Source text: as §1, §2, §3
# MraY = assay type: binding, Aquifex aeolicus; conditions: MraY (2.5 µM) and C55-P (10 µM), molar ratio 1:4, pH 8.0 vs pH 5.0; negative control
# Source text: UptA is a member of the DedA family of transporters whose cellular functions are potentially driven by proton-motive force and provide conditional fitness to bacteria under alkaline conditions ([25], [26], [36]). […] To this end, we equilibrated C55-P with UptA at a protein/ligand molar ratio of 1:4 in a buffer of the same composition but at pH 8.0 and 5.0. […] As a negative control, we tested for pH sensitivity of C55-P binding to MraY, the latter being the downstream enzyme in the peptidoglycan pathway that couples UM5 to C55-P. To this end, we equilibrated MraY and C55-P at a molar ratio of 1:4 in a buffer of pH 8.0 and pH 5.0.
compound,measurement,setting,value
"CC(C)=CCC/C(C)=C/CC/C(C)=C/CC/C(C)=C\CC/C(C)=C\CC/C(C)=C\CC/C(C)=C\CC/C(C)=C\CC/C(C)=C\CC/C(C)=C\CC/C(C)=C\COP(=O)(O)O [C55-P, undecaprenyl phosphate]","reduction in the intensity of C55-P binding compared to wild type, R112E/R118E",UptA R112E/R118E,63%
same,"reduction in C55-P binding intensity compared to wild type, Q64A (in words)",UptA Q64A,modest reduction
same,pH sensitivity of C55-P binding to MraY (in words),MraY,no pH-dependency in C55-P binding by MraY; also recorded: no significant difference in the intensity of C55-P bound to MraY at pH 8.0 and at pH 5.0
